Read-outs that look alike come from different tables or passages of the source.
Legend:
CypA E81S/K82R = biological target: T1, CypA E81S/K82R (Homo sapiens, UniProt P62937, E81S/K82R); assay: Chymotrypsin coupled prolyl-isomerase assay; format: biochemical; settings: prolyl-isomerase inhibition; read-out: IC50 CypA E81S/K82R
T1 construct: Lane 12- SNA-CypA E81S/K82R (1-165);; His6 tag with TEV site (2BT vector); SNA remnant stays on the N-terminus (N, cleaved yes); made in house; host or cells: E. coli BL21(DE3)
T1 sequence (P62937 whole entry E81S/K82R): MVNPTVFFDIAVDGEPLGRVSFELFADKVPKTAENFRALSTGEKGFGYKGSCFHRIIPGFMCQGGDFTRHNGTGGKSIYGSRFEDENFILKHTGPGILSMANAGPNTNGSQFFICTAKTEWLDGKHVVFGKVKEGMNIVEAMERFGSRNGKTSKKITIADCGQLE
Summary of the method: (§1)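 Steps: cyclophilin plus compound 5 min at 2–3 °C; α-chymotrypsin added, 5 min more; Suc-AAPF-AMC substrate in LiCl/trifluoroethanol injected and fluorescence followed 330 s. Finals: 5 nM enzyme, 25 µM chymotrypsin, 5 µM substrate, 0.25% DMSO.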

CypD K118A = biological target: T2, CypD K118A (Homo sapiens, UniProt P30405, K118A); assay: Chymotrypsin coupled prolyl-isomerase assay; format: biochemical; settings: prolyl-isomerase inhibition
T2 construct: made in house; host or cells: E. coli BL21(DE3)
T2 sequence (P30405 45-207 K118A): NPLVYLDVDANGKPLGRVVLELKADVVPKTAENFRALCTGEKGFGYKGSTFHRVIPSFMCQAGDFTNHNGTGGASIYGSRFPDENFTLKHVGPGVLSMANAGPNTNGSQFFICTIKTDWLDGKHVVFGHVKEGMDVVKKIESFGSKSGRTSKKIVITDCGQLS
Summary of the method: as §1

CypD R124A = biological target: T3, CypD R124A (Homo sapiens, UniProt P30405, R124A); assay: Chymotrypsin coupled prolyl-isomerase assay; format: biochemical; settings: mutant CypD R124A; read-out: Mutant Cyclophilin Prolyl Isomerase Inhibition IC50 Values, CypD R124A
T3 construct: made in house; host or cells: E. coli BL21(DE3)
T3 sequence (P30405 45-207 R124A): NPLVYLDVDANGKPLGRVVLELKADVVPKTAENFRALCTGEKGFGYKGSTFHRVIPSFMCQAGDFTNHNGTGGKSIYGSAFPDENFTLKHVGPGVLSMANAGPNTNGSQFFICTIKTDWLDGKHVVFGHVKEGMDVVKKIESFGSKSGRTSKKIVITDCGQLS
Summary of the method: as §1

CypA = biological target: T4, CypA (Homo sapiens, UniProt P62937); assay: Chymotrypsin coupled prolyl-isomerase assay; format: biochemical; settings: read-out: IC50 CypA
T4 construct: PPIA (UniProtKB Entry P62937: residues 1–165); made in house; host or cells: E. coli BL21(DE3)
T4 sequence (P62937 whole entry, the tested form may be a part): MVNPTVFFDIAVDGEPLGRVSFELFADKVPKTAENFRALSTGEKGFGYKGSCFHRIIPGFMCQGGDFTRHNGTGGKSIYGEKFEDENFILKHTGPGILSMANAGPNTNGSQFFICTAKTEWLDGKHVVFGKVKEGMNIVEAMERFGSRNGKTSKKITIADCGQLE
Summary of the method: as §1

CypC = biological target: T5, CypC (Homo sapiens, UniProt P45877); assay: Chymotrypsin coupled prolyl-isomerase assay; format: biochemical
T5 construct: PPIC (UniProtKB Entry P45877: residues 24–212); host or cells: E. coli BL21(DE3)
T5 sequence (P45877 24-212): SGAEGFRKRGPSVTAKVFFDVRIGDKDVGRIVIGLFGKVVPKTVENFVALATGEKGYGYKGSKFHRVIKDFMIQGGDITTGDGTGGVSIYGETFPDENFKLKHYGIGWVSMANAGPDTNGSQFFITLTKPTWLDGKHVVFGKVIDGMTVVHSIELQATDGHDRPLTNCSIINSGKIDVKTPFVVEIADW
Summary of the method: as §1

CypD K118E = biological target: T6, CypD K118E (Homo sapiens, UniProt P30405, K118E); assay: Chymotrypsin coupled prolyl-isomerase assay; format: biochemical; settings: prolyl-isomerase inhibition
T6 construct: made in house; host or cells: E. coli BL21(DE3)
T6 sequence (P30405 45-207 K118E): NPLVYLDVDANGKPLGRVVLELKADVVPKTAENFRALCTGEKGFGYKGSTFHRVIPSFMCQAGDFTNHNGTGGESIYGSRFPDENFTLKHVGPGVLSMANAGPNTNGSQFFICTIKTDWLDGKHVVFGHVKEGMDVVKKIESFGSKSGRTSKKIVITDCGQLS
Summary of the method: as §1

CypH = biological target: T7, CypH (Homo sapiens, UniProt O43447); assay: Chymotrypsin coupled prolyl-isomerase assay; format: biochemical
T7 construct: PPIH (UniProtKB Entry O43447: residues 1–177); His6 with TEV site (2BT vector leader) (N); made in house; host or cells: E. coli BL21(DE3)
T7 sequence (O43447 whole entry, the tested form may be a part): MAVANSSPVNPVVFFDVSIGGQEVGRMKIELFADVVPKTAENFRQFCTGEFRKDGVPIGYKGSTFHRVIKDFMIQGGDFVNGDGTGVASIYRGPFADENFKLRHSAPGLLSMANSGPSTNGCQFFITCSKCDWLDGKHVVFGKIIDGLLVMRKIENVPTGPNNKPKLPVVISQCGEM
Summary of the method: as §1

CypD R124K = biological target: T8, CypD R124K (Homo sapiens, UniProt P30405, R124K); assay: Chymotrypsin coupled prolyl-isomerase assay; format: biochemical; settings: mutant CypD R124K; read-out: Mutant Cyclophilin Prolyl Isomerase Inhibition IC50 Values, CypD R124K
T8 construct: made in house; host or cells: E. coli BL21(DE3)
T8 sequence (P30405 45-207 R124K): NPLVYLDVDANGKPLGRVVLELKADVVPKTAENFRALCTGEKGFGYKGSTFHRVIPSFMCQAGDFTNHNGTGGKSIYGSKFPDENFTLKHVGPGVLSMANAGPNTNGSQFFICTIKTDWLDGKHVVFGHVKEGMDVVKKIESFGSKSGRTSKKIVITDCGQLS
Summary of the method: as §1

CypE = biological target: T9, CypE (Homo sapiens, UniProt Q9UNP9); assay: Chymotrypsin coupled prolyl-isomerase assay; format: biochemical
T9 construct: PPIE (UniProtKB Entry Q9UNP9: residues 131–301); host or cells: E. coli BL21(DE3)
T9 sequence (Q9UNP9 131-301): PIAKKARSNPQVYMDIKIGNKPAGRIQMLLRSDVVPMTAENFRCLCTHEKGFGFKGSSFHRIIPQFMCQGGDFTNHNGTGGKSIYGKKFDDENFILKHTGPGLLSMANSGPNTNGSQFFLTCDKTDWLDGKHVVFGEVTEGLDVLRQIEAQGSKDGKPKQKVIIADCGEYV
Summary of the method: as §1

CypG = biological target: T10, CypG (Homo sapiens, UniProt Q13427); assay: Chymotrypsin coupled prolyl-isomerase assay; format: biochemical
T10 construct: PPIG (UniProtKB Entry Q13427: residues 1–179); His6 with thrombin site (pET28a LIC leader) (N); host or cells: E. coli BL21(DE3)
T10 sequence (Q13427 1-179): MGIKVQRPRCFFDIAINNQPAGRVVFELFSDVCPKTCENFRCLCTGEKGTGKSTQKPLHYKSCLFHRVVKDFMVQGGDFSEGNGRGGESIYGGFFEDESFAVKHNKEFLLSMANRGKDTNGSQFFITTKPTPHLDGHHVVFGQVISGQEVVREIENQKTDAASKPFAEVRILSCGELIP
Summary of the method: as §1

CypD S123E = biological target: T11, CypD S123E (Homo sapiens, UniProt P30405, S123E); assay: Chymotrypsin coupled prolyl-isomerase assay; format: biochemical; settings: prolyl-isomerase inhibition
T11 construct: made in house; host or cells: E. coli BL21(DE3)
T11 sequence (P30405 45-207 S123E): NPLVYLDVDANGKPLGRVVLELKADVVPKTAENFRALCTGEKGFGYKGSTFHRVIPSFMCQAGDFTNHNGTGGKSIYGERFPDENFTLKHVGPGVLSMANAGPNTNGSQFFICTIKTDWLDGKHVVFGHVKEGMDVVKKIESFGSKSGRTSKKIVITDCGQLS
Summary of the method: as §1

CypB E121S = biological target: T12, CypB E121S (Homo sapiens, UniProt P23284, E121S); assay: biochemical; settings: prolyl-isomerase inhibition; read-out: IC50 CypB E121S
T12 construct: Lane 14- SNA-CypB E121S (34-216);; His6 tag with TEV site (2BT vector); SNA remnant stays on the N-terminus (N, cleaved yes); made in house; host or cells: E. coli BL21(DE3)
T12 sequence (P23284 34-216 E121S): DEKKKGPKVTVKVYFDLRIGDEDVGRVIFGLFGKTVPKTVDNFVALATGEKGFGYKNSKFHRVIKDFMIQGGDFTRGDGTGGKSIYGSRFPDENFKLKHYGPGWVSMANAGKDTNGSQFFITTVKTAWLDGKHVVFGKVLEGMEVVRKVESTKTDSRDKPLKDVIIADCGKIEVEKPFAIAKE
Summary of the method: as §1

SMILES: NCCOCCNC(=O)[C@@H]1CCNC(=O)/C=C/C(=O)N2CCC[C@](Cc3ccccc3)(C2)C(=O)N[C@@H](Cc2ccc(-c3ccc(C(CC(=O)O)CC(=O)O)cc3)cc2)C(=O)NCc2ccccc2CC(=O)N1 [Compound B53]
- IC50 (CypA E81S/K82R): 0.18 µM
- IC50 (CypD K118A): 0.9 µM
- IC50 (CypD R124A): 0.032 µM
- IC50 (CypA; Independent replicate 1): 3 ± 2 µM
- IC50 (CypA; Independent replicate 2): 3 ± 1 µM
- IC50 (CypA; Independent replicate 3): 4 ± 2 µM
- IC50 (CypA; Independent replicate 4): 4 ± 1 µM
- IC50 (CypA; prolyl-isomerase inhibition, 5 nM cyclophilin): 3.4 µM
- IC50 (CypC; Independent replicate 1, read-out: IC50 CypC): > 50 µM
- IC50 (CypC; Independent replicate 2, read-out: IC50 CypC): > 50 µM
- IC50 (CypC; Independent replicate 3, read-out: IC50 CypC): > 50 µM
- IC50 (CypC; Independent replicate 4, read-out: IC50 CypC): > 50 µM
- IC50 (CypC; prolyl-isomerase inhibition, 5 nM cyclophilin, read-out: IC50 CypC): > 50 µM
- IC50 (CypC; wild-type CypC, read-out: Wild-Type Cyclophilin Prolyl Isomerase Inhibition IC50 Values, CypC): > 50 µM
- IC50 (CypD K118E): 4 µM
- IC50 (CypH; Independent replicate 1, read-out: IC50 CypH): > 50 µM
- IC50 (CypH; Independent replicate 2, read-out: IC50 CypH): > 50 µM
- IC50 (CypH; Independent replicate 3, read-out: IC50 CypH): > 50 µM
- IC50 (CypH; Independent replicate 4, read-out: IC50 CypH): > 50 µM
- IC50 (CypH; prolyl-isomerase inhibition, 5 nM cyclophilin, read-out: IC50 CypH): > 50 µM
- IC50 (CypH; wild-type CypH, read-out: Wild-Type Cyclophilin Prolyl Isomerase Inhibition IC50 Values, CypH): > 50 µM
- IC50 (CypD R124K): 0.1 µM
- IC50 (CypE; Independent replicate 1, read-out: IC50 CypE): 0.6 ± 0.3 µM
- IC50 (CypE; Independent replicate 2, read-out: IC50 CypE): 0.9 ± 0.3 µM
- IC50 (CypE; Independent replicate 3, read-out: IC50 CypE): 0.6 ± 0.2 µM
- IC50 (CypE; Independent replicate 4, read-out: IC50 CypE): 1.1 ± 0.6 µM
- IC50 (CypE; wild-type CypE, read-out: Wild-Type Cyclophilin Prolyl Isomerase Inhibition IC50 Values, CypE): 0.8 µM
- IC50 (CypG; Independent replicate 1, read-out: IC50 CypG): ~50 µM
- IC50 (CypG; Independent replicate 2, read-out: IC50 CypG): > 50 µM
- IC50 (CypG; Independent replicate 3, read-out: IC50 CypG): > 50 µM
- IC50 (CypG; Independent replicate 4, read-out: IC50 CypG): > 50 µM
- IC50 (CypG; prolyl-isomerase inhibition, 5 nM cyclophilin, read-out: IC50 CypG): > 50 µM
- IC50 (CypG; wild-type CypG, read-out: Wild-Type Cyclophilin Prolyl Isomerase Inhibition IC50 Values, CypG): > 50 µM
- IC50 (CypD S123E): 0.8 µM
- IC50 (CypB E121S): 0.05 µM

Reference: paper PMC9596378, “Discovery and molecular basis of subtype-selective cyclophilin inhibitors” (Nature Chemical Biology, 2022)
